Reference: PubChem BioAssay (NCI)
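Step 1: Grow cells in 96-well plates. Step 2: Expose to compound for 48 hours at 5 concentrations. Step 3: Interpolate endpoints linearly; if unreached, use highest concentration. GI50 is the concentration that inhibits growth by half. TGI: total growth inhibition.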

How the values were obtained:
Assay in all cases: NCI tumour cell line growth inhibition, 48 h
[1] = tested on: 786-0 renal
[2] = tested on: A498 renal
[3] = tested on: A549 NSCLC
[4] = tested on: ACHN renal
[5] = tested on: BT-549 breast
[6] = tested on: CAKI-1 renal
[7] = tested on: CCRF-CEM leukemia
[8] = tested on: COLO 205 colon
[9] = tested on: DU-145 prostate
[10] = tested on: EKVX NSCLC
[11] = tested on: HCC-2998 colon
[12] = tested on: HCT-116 colon
[13] = tested on: HCT-15 colon
[14] = tested on: HL-60(TB) leukemia
[15] = tested on: HOP-62 NSCLC
[16] = tested on: HOP-92 NSCLC
[17] = tested on: HS 578T breast
[18] = tested on: HT29 colon
[19] = tested on: IGROV1 ovarian
[20] = tested on: K-562 leukemia
[21] = tested on: KM12 colon
[22] = tested on: LOX IMVI melanoma
[23] = tested on: M14 melanoma
[24] = tested on: MALME-3M melanoma
[25] = tested on: MCF7 breast
[26] = tested on: MDA-MB-231 breast
[27] = tested on: MOLT-4 leukemia
[28] = tested on: NCI-H226 lung
[29] = tested on: NCI-H23 lung
[30] = tested on: NCI-H460 lung
[31] = tested on: NCI-H522 lung
[32] = tested on: NCI/ADR-RES ovarian
[33] = tested on: OVCAR-3 ovarian
[34] = tested on: OVCAR-4 ovarian
[35] = tested on: OVCAR-5 ovarian
[36] = tested on: OVCAR-8 ovarian
[37] = tested on: PC-3 prostate
[38] = tested on: RPMI-8226 leukemia
[39] = tested on: RXF 393 renal
[40] = tested on: SF-268 CNS
[41] = tested on: SF-295 CNS
[42] = tested on: SF-539 CNS
[43] = tested on: SK-MEL-2 melanoma
[44] = tested on: SK-MEL-28 melanoma
[45] = tested on: SK-MEL-5 melanoma
[46] = tested on: SK-OV-3 ovarian
[47] = tested on: SN12C renal
[48] = tested on: SNB-19 CNS
[49] = tested on: SNB-75 CNS
[50] = tested on: SR leukemia
[51] = tested on: SW-620 colon
[52] = tested on: T-47D breast
[53] = tested on: TK-10 renal
[54] = tested on: U251 CNS
[55] = tested on: UACC-257 melanoma
[56] = tested on: UACC-62 melanoma
[57] = tested on: UO-31 renal

CSCCC(NC(=O)CNC(=O)C(CC(=O)O)NC(=O)C(NC(=O)C(NC(=O)C(NC(=O)CNC(=O)C(CCC(N)=O)NC(=O)C(CCSC)NC(=O)C(CC(=O)O)NC(=O)C(C)NC(=O)C(C)NC(=O)C(NC(=O)C(CO)NC(=O)C(N)CC(C)C)C(C)O)C(C)C)C(C)C)C(C)O)C(=O)NC(C)C(=O)NC(CO)C(=O)NCC(=O)NC(CC(C)C)C(=O)NC(CC(=O)O)C(=O)NC(CCCCN)C(=O)NC(CC(=O)O)C(=O)NC(Cc1ccc(O)cc1)C(=O)NC(CC(C)C)C(=O)NC(CCCCN)C(=O)N1CCCC1C(=O)NC(CC(=O)O)C(=O)NC(CC(=O)O)C(=O)O (centres undefined)
GI50 [1]: > 82.5 µM
TGI [1]: > 82.5 µM
GI50 [2]: > 82.5 µM
TGI [2]: > 82.5 µM
GI50 [3]: > 82.5 µM
TGI [3]: > 82.5 µM
GI50 [4]: > 82.5 µM
TGI [4]: > 82.5 µM
GI50 [5]: > 82.5 µM
TGI [5]: > 82.5 µM
GI50 [6]: > 82.5 µM
TGI [6]: > 82.5 µM
GI50 [7]: > 82.5 µM
TGI [7]: > 82.5 µM
GI50 [8]: > 82.5 µM
TGI [8]: > 82.5 µM
GI50 [9]: > 82.5 µM
TGI [9]: > 82.5 µM
GI50 [10]: > 82.5 µM
TGI [10]: > 82.5 µM
GI50 [11]: > 82.5 µM
TGI [11]: > 82.5 µM
GI50 [12]: > 82.5 µM
TGI [12]: > 82.5 µM
GI50 [13]: > 82.5 µM
TGI [13]: > 82.5 µM
GI50 [14]: > 82.5 µM
TGI [14]: > 82.5 µM
GI50 [15]: > 82.5 µM
TGI [15]: > 82.5 µM
GI50 [16]: > 82.5 µM
TGI [16]: > 82.5 µM
GI50 [17]: > 82.5 µM
TGI [17]: > 82.5 µM
GI50 [18]: > 82.5 µM
TGI [18]: > 82.5 µM
GI50 [19]: > 82.5 µM
TGI [19]: > 82.5 µM
GI50 [20]: > 82.5 µM
TGI [20]: > 82.5 µM
GI50 [21]: > 82.5 µM
TGI [21]: > 82.5 µM
GI50 [22]: > 82.5 µM
TGI [22]: > 82.5 µM
GI50 [23]: > 82.5 µM
TGI [23]: > 82.5 µM
GI50 [24]: > 82.5 µM
TGI [24]: > 82.5 µM
GI50 [25]: > 82.5 µM
TGI [25]: > 82.5 µM
GI50 [26]: > 82.5 µM
TGI [26]: > 82.5 µM
GI50 [27]: > 82.5 µM
TGI [27]: > 82.5 µM
GI50 [28]: > 82.5 µM
TGI [28]: > 82.5 µM
GI50 [29]: > 82.5 µM
TGI [29]: > 82.5 µM
GI50 [30]: > 82.5 µM
TGI [30]: > 82.5 µM
GI50 [31]: > 82.5 µM
TGI [31]: > 82.5 µM
GI50 [32]: > 82.5 µM
TGI [32]: > 82.5 µM
GI50 [33]: > 82.5 µM
TGI [33]: > 82.5 µM
GI50 [34]: > 82.5 µM
TGI [34]: > 82.5 µM
GI50 [35]: > 82.5 µM
TGI [35]: > 82.5 µM
GI50 [36]: > 82.5 µM
TGI [36]: > 82.5 µM
GI50 [37]: > 82.5 µM
TGI [37]: > 82.5 µM
GI50 [38]: > 82.5 µM
TGI [38]: > 82.5 µM
GI50 [39]: > 82.5 µM
TGI [39]: > 82.5 µM
GI50 [40]: > 82.5 µM
TGI [40]: > 82.5 µM
GI50 [41]: > 82.5 µM
TGI [41]: > 82.5 µM
GI50 [42]: > 82.5 µM
TGI [42]: > 82.5 µM
GI50 [43]: > 82.5 µM
TGI [43]: > 82.5 µM
GI50 [44]: > 82.5 µM
TGI [44]: > 82.5 µM
GI50 [45]: > 82.5 µM
TGI [45]: > 82.5 µM
GI50 [46]: > 82.5 µM
TGI [46]: > 82.5 µM
GI50 [47]: > 82.5 µM
TGI [47]: > 82.5 µM
GI50 [48]: > 82.5 µM
TGI [48]: > 82.5 µM
GI50 [49]: > 82.5 µM
TGI [49]: > 82.5 µM
GI50 [50]: > 82.5 µM
TGI [50]: > 82.5 µM
GI50 [51]: > 82.5 µM
TGI [51]: > 82.5 µM
GI50 [52]: > 82.5 µM
TGI [52]: > 82.5 µM
GI50 [53]: > 82.5 µM
TGI [53]: > 82.5 µM
GI50 [54]: > 82.5 µM
TGI [54]: > 82.5 µM
GI50 [55]: > 82.5 µM
TGI [55]: > 82.5 µM
GI50 [56]: > 82.5 µM
TGI [56]: > 82.5 µM
GI50 [57]: > 82.5 µM
TGI [57]: > 82.5 µM
